According to publication PMC10915170, “New oxadiazole and pyrazoline derivatives as anti-proliferative agents targeting EGFR-TK: design, synthesis, biological evaluation and molecular docking study” (Scientific Reports, 2024):
Several values for one entry are separate records, joined by “and”; a condition that tells them apart may be missing. Equal entries are not always repeated. Entries after “also recorded” stand apart in the source; their conditions may differ. Where two headings read alike, the source gives them in different places.

Assays:
MCF-7 = settings: cited from earlier work
HCT116 = assay: MTT anti-proliferative assay, HCT116; type: cell-based; settings: Homo sapiens, HCT-116, mean ± SD of three independent experiments
Description: (§1) Doxorubicin (DOX) was used as a reference drug.
(§2) Cell lines were obtained from ATCC via Holding company for biological products and vaccines (VACSERA), Cairo, Egypt. Doxorubicin (Dox.) is used as a standard anticancer drug. This colorimetric assay is based on the conversion of yellow (MTT) to a purple formazan derivative by mitochondrial succinate dehydrogenase in viable cells. This colorimetric assay was performed according to the reported method[36],[37].

MCF7 = assay: MTT anti-proliferative assay, MCF7; type: cell-based; settings: Homo sapiens, mean ± SD of three independent experiments
Description: as §1, §2

HePG-2 = assay: MTT anti-proliferative assay, HepG-2; settings: Homo sapiens, HepG2, read-out: IC50 HePG-2
WI-38 = assay: MTT cytotoxicity against normal fibroblast cells WI-38; settings: Homo sapiens, WI-38, read-out: IC50 WI-38
EGFR = settings: cited from earlier work
EGFR-TK = EGFR-TK (Homo sapiens, UniProt P00533); assay: EGFR-TK inhibition assay
HepG-2 cells [1] = assay: Cell cycle analysis by PI flow cytometry; type: cell-based, human
Description: Cell cycle analysis for compound 5a was performed using the HepG-2 cell lines stained with propidium iodide (PI) and FACSCalibur flow cytometer as mentioned in previous reports.

HepG-2 cells [2] = assay: Annexin V-FITC/Propidium iodide dual staining apoptosis assay; type: cell-based, human; settings: HepG-2, 24 h
Description: Liver HepG-2 cancer cells were used in the Annexin V-FITC/Propidium iodide dual staining assay[40] to calculate the percentage of apoptosis induced by compound 5a. As shown in Figs. 6 and Fig. 7, compound 5a induces the early apoptosis in HepG-2 after 24 h incubation by (19.61%) 41.72 folds over the untreated cells (0.47%). Also, it enhances the late apoptotic induction by 11.89% compared to untreated control (0.16%). Cumulatively, compound 5a induced total apoptosis (35.28%) 14.57 folds over the untreated cells (2.42%).
Apoptosis induction for 5a was performed using the HepG-2 cell lines and well-established Annexin 5-FITC/PI detection kit similar to the reported procedures.

[3] = tested on: BAX, BCL-2, Cyto c, Casp. 6, 7, 9 and Survivin in HepG-2 cells; assay: RT-PCR gene expression of apoptotic markers; type: cell-based, human; settings: HepG-2, control = 1
Excerpt: The B cell lymphoma-2 (Bcl-2) family of proteins, which includes pro-apoptotic (Bax, Bak, Bid, and Bad) and anti-apoptotic (Bcl-2, Bcl-xL, and Bcl-w) proteins, mediates the mitochondrial or intrinsic apoptosis pathway. These proteins cause apoptosis by influencing the permeability of the mitochondrial membrane, which results in the release of cytochrome c into the cytosol. The Bax/Bcl-2 ratio is frequently employed as a marker of cell death and is essential for controlling mitochondrial cytochrome c release. It is thought that caspases perform critical functions in modulating the mitochondrial pathway. After cytochrome c is released into the cytosol, caspase-9 is triggered. Caspase-9 can activate effector caspases, such as caspase-3, 6 and 7, which cause cells to enter apoptosis. The various target proteins that the effector caspases cleave are widely dispersed throughout the cell, which causes the morphological modifications that are indicative of apoptosis. Apoptosis is inhibited by the anti-apoptotic protein survivin, which regulates the actions of caspase-9 and effector caspases.
Gene expression analysis was performed by using (iScriptTM OneStep RT-PCR Kit with SYBR® Green) from Bio-Rad according to reported procedure.

HepG-2 cells [4] = assay: Intracellular ROS accumulation assay (ELISA); type: cell-based, human; settings: for ROS: HepG-2, mean ± SD of three experiments, control 105.6 ± 10.8
Excerpt: Under both physiological and pathological circumstances, reactive oxygen species (ROS) such H2O2 and superoxides play a significant role in the activation of apoptosis. It's interesting to note that mitochondria both produce and absorb ROS.
Intracellular reactive oxygen species (ROS) were detected by the EIAab ROS ELISA kit according to the reported method.

HER2 = HER2 (Homo sapiens, UniProt P04626); assay: HER2 inhibition assay
HER3 = HER3 (Homo sapiens, UniProt P21860); assay: HER3 inhibition assay
HER4 = HER4 (Homo sapiens, UniProt Q15303); assay: HER4 inhibition assay
HCT116, HepG-2 and MCF7 = assay: MTT assay, all three cancer cell lines (summary range); settings: Homo sapiens, read-out: IC50 range against all cancer cell lines

Sequence of EGFR-TK (P00533 25-1210): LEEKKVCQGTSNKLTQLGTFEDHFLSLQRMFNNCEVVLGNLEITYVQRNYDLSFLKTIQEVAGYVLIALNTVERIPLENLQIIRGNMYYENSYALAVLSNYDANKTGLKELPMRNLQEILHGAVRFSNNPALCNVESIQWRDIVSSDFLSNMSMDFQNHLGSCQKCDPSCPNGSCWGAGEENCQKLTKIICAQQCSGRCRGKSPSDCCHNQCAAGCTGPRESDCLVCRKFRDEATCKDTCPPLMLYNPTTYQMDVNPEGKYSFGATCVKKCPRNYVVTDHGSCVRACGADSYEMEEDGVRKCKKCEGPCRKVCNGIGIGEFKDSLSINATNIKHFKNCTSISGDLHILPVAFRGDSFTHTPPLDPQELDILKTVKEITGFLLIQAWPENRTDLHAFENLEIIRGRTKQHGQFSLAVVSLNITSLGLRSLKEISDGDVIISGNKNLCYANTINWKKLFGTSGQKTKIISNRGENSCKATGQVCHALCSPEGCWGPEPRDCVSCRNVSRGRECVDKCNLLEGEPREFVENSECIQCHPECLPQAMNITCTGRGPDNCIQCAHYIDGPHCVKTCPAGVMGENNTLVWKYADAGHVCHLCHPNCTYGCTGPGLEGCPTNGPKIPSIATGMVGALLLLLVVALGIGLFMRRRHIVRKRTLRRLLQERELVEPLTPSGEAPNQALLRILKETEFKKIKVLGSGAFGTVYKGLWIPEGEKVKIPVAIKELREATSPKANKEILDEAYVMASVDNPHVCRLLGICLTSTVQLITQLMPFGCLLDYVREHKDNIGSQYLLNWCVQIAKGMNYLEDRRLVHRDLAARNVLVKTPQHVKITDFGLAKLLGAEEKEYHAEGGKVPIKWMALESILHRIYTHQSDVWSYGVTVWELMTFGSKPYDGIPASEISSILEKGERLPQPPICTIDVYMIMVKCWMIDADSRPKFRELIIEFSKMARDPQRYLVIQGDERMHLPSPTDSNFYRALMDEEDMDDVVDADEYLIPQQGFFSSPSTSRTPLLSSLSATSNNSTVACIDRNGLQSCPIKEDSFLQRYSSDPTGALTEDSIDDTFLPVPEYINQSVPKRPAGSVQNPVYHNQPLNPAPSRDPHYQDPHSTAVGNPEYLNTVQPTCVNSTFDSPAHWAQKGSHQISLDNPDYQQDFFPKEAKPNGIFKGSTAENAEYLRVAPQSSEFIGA
Sequence of HER3 (P21860 20-1342): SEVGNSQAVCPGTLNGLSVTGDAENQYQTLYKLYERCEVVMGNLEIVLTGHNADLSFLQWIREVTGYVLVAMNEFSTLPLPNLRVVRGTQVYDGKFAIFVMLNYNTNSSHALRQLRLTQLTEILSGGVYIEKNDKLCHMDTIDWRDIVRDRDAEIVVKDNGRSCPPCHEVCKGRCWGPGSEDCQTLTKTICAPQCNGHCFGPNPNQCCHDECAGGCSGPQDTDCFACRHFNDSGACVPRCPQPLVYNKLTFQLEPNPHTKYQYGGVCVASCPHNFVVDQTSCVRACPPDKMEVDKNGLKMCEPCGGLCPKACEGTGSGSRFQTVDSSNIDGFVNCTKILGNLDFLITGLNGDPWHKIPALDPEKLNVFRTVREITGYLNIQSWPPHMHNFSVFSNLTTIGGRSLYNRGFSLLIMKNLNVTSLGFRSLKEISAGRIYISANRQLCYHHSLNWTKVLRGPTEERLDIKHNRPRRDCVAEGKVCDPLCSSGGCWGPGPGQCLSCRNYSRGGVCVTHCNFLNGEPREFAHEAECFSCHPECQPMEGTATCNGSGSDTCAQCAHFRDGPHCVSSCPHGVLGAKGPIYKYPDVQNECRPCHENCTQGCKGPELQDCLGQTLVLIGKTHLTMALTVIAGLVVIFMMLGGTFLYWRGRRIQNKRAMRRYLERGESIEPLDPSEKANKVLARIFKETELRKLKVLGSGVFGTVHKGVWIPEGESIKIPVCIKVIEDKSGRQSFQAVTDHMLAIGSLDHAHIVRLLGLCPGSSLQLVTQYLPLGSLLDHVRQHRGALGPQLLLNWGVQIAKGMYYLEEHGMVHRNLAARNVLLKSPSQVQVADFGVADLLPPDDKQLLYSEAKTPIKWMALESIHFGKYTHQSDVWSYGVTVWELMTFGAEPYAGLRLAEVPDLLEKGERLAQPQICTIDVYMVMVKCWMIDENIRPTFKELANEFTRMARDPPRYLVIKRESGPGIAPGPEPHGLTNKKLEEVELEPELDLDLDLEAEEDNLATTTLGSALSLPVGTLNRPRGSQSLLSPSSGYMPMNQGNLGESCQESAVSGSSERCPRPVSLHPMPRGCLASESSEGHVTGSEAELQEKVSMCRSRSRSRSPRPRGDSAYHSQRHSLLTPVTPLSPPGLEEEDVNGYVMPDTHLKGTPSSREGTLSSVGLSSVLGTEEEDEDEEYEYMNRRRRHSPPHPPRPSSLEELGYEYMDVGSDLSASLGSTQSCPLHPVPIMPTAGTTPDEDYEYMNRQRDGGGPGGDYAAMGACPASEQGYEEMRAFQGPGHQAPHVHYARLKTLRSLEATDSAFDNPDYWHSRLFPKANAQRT
Sequence of HER2 (P04626 23-1255): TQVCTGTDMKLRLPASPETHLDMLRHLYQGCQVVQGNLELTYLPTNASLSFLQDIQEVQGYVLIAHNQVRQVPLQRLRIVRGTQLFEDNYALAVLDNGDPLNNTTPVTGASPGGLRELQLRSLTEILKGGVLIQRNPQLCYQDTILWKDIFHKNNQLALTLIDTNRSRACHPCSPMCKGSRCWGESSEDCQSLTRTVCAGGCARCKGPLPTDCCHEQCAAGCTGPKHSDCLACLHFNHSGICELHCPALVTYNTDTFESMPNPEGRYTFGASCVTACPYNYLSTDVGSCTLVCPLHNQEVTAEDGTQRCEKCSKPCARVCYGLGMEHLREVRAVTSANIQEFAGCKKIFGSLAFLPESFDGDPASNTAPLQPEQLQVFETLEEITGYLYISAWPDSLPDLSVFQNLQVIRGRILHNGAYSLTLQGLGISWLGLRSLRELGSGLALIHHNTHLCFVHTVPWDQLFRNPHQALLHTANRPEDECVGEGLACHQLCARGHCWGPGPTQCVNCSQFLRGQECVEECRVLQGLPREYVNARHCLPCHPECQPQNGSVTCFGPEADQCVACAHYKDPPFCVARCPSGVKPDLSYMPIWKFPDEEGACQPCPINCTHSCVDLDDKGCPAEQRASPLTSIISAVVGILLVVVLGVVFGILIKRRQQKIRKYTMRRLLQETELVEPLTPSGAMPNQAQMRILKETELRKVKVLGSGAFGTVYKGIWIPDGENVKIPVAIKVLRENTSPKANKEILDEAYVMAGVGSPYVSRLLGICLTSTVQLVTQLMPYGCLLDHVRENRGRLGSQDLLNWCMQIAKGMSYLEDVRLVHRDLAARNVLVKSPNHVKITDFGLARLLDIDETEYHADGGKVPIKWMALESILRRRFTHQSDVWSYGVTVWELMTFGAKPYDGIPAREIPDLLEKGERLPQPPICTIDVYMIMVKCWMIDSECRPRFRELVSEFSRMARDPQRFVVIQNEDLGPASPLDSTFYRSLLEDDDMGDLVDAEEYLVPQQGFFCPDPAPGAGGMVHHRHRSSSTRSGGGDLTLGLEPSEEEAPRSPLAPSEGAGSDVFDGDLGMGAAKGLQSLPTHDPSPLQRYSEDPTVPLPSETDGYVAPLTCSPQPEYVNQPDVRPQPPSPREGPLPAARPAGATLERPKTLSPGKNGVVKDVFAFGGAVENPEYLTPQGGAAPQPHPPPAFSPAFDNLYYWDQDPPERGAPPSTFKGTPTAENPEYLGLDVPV
Sequence of HER4 (Q15303 26-1308): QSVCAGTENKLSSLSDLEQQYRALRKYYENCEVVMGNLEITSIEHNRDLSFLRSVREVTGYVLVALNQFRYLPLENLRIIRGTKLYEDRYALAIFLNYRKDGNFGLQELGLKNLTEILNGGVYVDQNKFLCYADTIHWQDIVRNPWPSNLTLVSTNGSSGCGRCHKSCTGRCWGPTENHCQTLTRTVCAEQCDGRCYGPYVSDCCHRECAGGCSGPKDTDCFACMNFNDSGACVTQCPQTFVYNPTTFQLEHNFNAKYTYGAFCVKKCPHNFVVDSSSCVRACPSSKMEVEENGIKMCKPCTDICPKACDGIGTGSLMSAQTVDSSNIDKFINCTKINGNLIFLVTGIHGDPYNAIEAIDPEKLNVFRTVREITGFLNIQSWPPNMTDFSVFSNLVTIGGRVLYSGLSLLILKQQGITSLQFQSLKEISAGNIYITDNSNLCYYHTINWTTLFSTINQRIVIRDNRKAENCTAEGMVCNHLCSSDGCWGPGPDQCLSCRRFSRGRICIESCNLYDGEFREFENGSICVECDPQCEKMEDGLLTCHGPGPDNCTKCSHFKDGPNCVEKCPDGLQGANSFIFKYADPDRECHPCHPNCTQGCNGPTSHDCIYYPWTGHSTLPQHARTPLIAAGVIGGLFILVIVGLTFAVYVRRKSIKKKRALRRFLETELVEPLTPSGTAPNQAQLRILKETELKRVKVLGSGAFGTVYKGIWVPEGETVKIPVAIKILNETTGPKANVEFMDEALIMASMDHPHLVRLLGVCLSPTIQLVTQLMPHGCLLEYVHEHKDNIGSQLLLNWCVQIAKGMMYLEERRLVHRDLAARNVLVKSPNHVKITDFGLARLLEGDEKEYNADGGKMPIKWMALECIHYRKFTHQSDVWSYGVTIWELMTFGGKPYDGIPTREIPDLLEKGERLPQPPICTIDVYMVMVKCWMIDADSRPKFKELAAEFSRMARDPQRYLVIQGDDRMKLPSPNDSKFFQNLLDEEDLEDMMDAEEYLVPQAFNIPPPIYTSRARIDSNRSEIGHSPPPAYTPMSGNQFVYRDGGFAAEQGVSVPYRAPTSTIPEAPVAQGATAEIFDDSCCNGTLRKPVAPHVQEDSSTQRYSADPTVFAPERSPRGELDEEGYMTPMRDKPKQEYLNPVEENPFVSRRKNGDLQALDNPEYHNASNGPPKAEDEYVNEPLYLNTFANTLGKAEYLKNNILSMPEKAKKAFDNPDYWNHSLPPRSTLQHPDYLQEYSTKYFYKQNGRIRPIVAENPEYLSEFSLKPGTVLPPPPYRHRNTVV

SMILES	IC50 (HCT116)	IC50 (MCF7)	melting point	IC50 (HePG-2)	IC50 (WI-38)	other results
Nc1cc(-c2nnc(SCC(=O)c3ccccc3)o2)ccn1 [I]	–	–	–	–	–	IC50 (MCF-7): 10 nM
c1ccc(COc2ccc(-c3nnc(SC4CCCCCC4)o3)cc2)cc1 [Compound 5d, 2-(4-(Benzyloxy)phenyl)-5-(cycloheptylthio)-1,3,4-oxadiazole]	88.6 ± 4.8 µM	> 100 µM	83 to 85 °C	82.8 ± 4.5 µM	46.6 ± 2.7 µM	–
NC(=O)N1N=C(c2ccncc2)CC1c1cn(-c2ccccc2)nc1-c1ccc(OCc2ccccc2)cc1 (stereo not shown) [VI]	–	–	–	–	–	IC50 (EGFR): 3650 nM
CC(=O)N1N=C(c2ccc(OCc3ccccc3)cc2)CC1c1cccc([N+](=O)[O-])c1 (stereo not shown) [Compound 9b, 1-(3-(4-(Benzyloxy)phenyl)-5-(3-nitrophenyl)-4,5-dihydro-1H-pyrazol-1-yl)ethan-1-one]	10.2 ± 0.9 µM	15.2 ± 1.2 µM	127 to 129 °C	7.83 ± 0.5 µM	55.9 ± 3.2 µM	IC50 (EGFR-TK): 200 ± 10 nM
Cc1ccc(CSc2nnc(-c3ccc(OCc4ccccc4)cc3)o2)cc1 [Compound 5c, 2-(4-(Benzyloxy)phenyl)-5-((4-methylbenzyl)thio)-1,3,4-oxadiazole]	79.8 ± 4.4 µM	92.2 ± 4.9 µM	130 to 132 °C	71.4 ± 3.9 µM	> 100 µM	–
COc1cccc2c1C(=O)c1c(O)c3c(c(O)c1C2=O)C[C@@](O)(C(=O)CO)C[C@@H]3O[C@H]1C[C@H](N)[C@H](O)[C@H](C)O1 [DOX, Doxorubicin, reference compound]	–	–	–	4.5 ± 0.2 µM	–	–
CC(=O)N1N=C(c2ccc(-c3cncnc3)cc2)CC1c1ccc(F)cc1 (stereo not shown) [V]	–	–	–	–	–	EGFR inhibition rate (EGFR; 0.19 μM concentration): 83%; EGFR inhibition rate (EGFR; 50 μM concentration): 82%
COc1ccc(C2CC(c3ccc(OCc4ccccc4)cc3)=NN2C(C)=O)cc1OC (stereo not shown) [Compound 9c, 1-(3-(4-(Benzyloxy)phenyl)-5-(3,4-dimethoxyphenyl)-4,5-dihydro-1H-pyrazol-1-yl)ethan-1-one]	16.2 ± 1.2 µM	8.53 ± 0.6 µM	85 to 87 °C	12.2 ± 0.9 µM	49.6 ± 2.8 µM	–
c1ccc(COc2ccc(-c3nnc(SCc4ccccc4)o3)cc2)cc1 [Compound 5a, 2-(4-(Benzyloxy)phenyl)-5-(benzylthio)-1,3,4-oxadiazole]	64.4 ± 3.7 µM	78.5 ± 4.1 µM	–	35.6 ± 2.2 µM	53.9 ± 3 µM	Comment (cell cycle arrest phase) (HepG-2 cells [1]; HepG-2, 24 h): arrested the cell cycle on HepG-2 at a G1/S phase; also recorded: cell cycle arrest at G1/S phase; also recorded: cell growth arrest at G1/S; %G2/M (HepG-2 cells [1]; HepG-2, IC50 concentration, 24 h, untreated control 17.05): 6.64%; %S (HepG-2 cells [1]; HepG-2, IC50 concentration, 24 h, untreated control 37.09): 41.03%; %G0-G1 (HepG-2 cells [1]; HepG-2, IC50 concentration, 24 h, untreated control 45.86): 52.33%; early apoptosis, folds over the untreated cells (HepG-2 cells [2]): 41.72 folds; total apoptosis, folds over the untreated cells (HepG-2 cells [2]): 14.57 folds; late apoptosis (Q2) (HepG-2 cells [2]; untreated 0.16%): 11.89%; early apoptosis (Q4) (HepG-2 cells [2]; untreated 0.47%): 19.61%; RT-PCR Fold Change Bax [3]: 4.95 fold; RT-PCR Fold Change Casp. 6 [3]: 6.67 fold; RT-PCR Fold Change Casp. 7 [3]: 7.57 fold; RT-PCR Fold Change Casp. 9 [3]: 4.23 fold; RT-PCR Fold Change Cyto c [3]: 3.82 fold; ROS (HepG-2 cells [4]): 247.8 pg/mL and 247.8 ± 31.1 pg/mL; ROS Fold (HepG-2 cells [4]; HepG-2, versus control = 1): 2.34 fold; IC50 (HER2): 720 ± 28 nM; IC50 (HER3): 180 ± 6 nM; IC50 (HER4): 370 ± 15 nM; IC50 (EGFR-TK): 90 nM
c1ccc(COc2ccc(-c3nnc(SC4CCCC4)o3)cc2)cc1 [Compound 5e, 2-(4-(Benzyloxy)phenyl)-5-(cyclopentylthio)-1,3,4-oxadiazole]	75.6 ± 4.2 µM	86.8 ± 4.5 µM	91 to 93 °C	59.3 ± 3.4 µM	11.7 ± 0.9 µM	–
COc1cc2ncnc(Nc3ccc(F)c(Cl)c3)c2cc1OCCCN1CCOCC1 [Gefitinib, reference compound]	–	–	–	–	–	ROS (HepG-2 cells [4]): 260 ± 14.7 pg/mL; ROS (HepG-2 cells [4]; listed as gefitinib): 260 pg/mL
CCOC(=O)CSc1nnc(-c2ccc(OCc3ccccc3)cc2)o1 [Compound 5f., Ethyl 2-((5-(4-(benzyloxy)phenyl)-1,3,4-oxadiazol-2-yl)thio)acetate]	> 100 µM	> 100 µM	100 to 102 °C	91.3 ± 5 µM	77.3 ± 3.9 µM	–
COc1ccc(C2CC(c3ccc(OCc4ccccc4)cc3)=NN2)cc1OC (stereo not shown) [Compound 10c, 3-(4-(Benzyloxy)phenyl)-5-(3,4-dimethoxyphenyl)-4,5-dihydro-1H-pyrazole]	5.55 ± 0.3 µM	2.86 ± 0.1 µM	128 to 130 °C	1.82 ± 0.1 µM	41.2 ± 2.4 µM	IC50 (EGFR-TK): 270 ± 10 nM; IC50 (HCT116, HepG-2 and MCF7): 1.82 to 5.55 µM
O=C(CSc1nnc(-c2ccc3nccnc3c2)o1)c1ccc([N+](=O)[O-])cc1 [II]	–	–	–	–	–	IC50 (EGFR): 950 nM
O=[N+]([O-])c1cccc(C2CC(c3ccc(OCc4ccccc4)cc3)=NN2)c1 (stereo not shown) [Compound 10b, 3-(4-(Benzyloxy)phenyl)-5-(3-nitrophenyl)-4,5-dihydro-1H-pyrazole]	8.73 ± 0.7 µM	5.97 ± 0.3 µM	108 to 110 °C	3.98 ± 0.2 µM	37.9 ± 2.3 µM	IC50 (EGFR-TK): 160 nM
COc1ccc(C2=NN(C(C)=O)C(/C=C/c3ccccc3)C2)cc1 (stereo not shown) [IV]	–	–	–	–	–	IC50 (MCF-7): 4330 nM; IC50 (EGFR): 460 nM
Clc1ccc(CSc2nnc(-c3ccc(OCc4ccccc4)cc3)o2)cc1 [Compound 5b, 2-(4-(Benzyloxy)phenyl)-5-((4-chlorobenzyl)thio)-1,3,4-oxadiazole]	73.2 ± 4.2 µM	84.3 ± 4.4 µM	125 to 127 °C	38.1 ± 2.2 µM	13.2 ± 1.1 µM	–
Nc1ccccc1-c1nnc(SCc2ccccc2)o1 [III]	–	–	–	–	–	IC50 (EGFR): 1510 nM
CC(=O)N1N=C(c2ccc(OCc3ccccc3)cc2)CC1c1cccc(Br)c1 (stereo not shown) [Compound 9a, 1-(3-(4-(Benzyloxy)phenyl)-5-(3-bromophenyl)-4,5-dihydro-1H-pyrazol-1-yl)ethan-1-one]	55.3 ± 3.1 µM	46.1 ± 2.5 µM	93 to 95 °C	32.6 ± 2.1 µM	85.1 ± 4.1 µM	–
Brc1cccc(C2CC(c3ccc(OCc4ccccc4)cc3)=NN2)c1 (stereo not shown) [Compound 10a, 3-(4-(Benzyloxy)phenyl)-5-(3-bromophenyl)-4,5-dihydro-1H-pyrazole]	9.94 ± 0.8 µM	8.11 ± 0.6 µM	86 to 88 °C	6.32 ± 0.4 µM	62.3 ± 3.4 µM	IC50 (EGFR-TK): 700 ± 30 nM
